According to PubChem BioAssay (NCI):
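Where inhibition never reached the appropriate level, the endpoint shown equals the highest concentration tested. Otherwise, values were interpolated linearly from a five-concentration, 48-hour dose response in 96-well plates. At the GI50, growth is halved. TGI: concentration producing complete growth inhibition.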

Test system: MDA-MB-468 breast
Assay: growth of human tumour cells (NCI), 48 h

Row | SMILES | GI50 [µM] | TGI [µM]
1 | O=C(N/N=C/c1c(Cl)cccc1Cl)c1cccnc1Nc1cccc(C(F)(F)F)c1 | 0.951 | 9.27
2 | Cc1ccc(NC2=N[C@]34CC(=O)CC[C@]3(C)[C@H]3CC[C@]5(C)C(=O)CC[C@H]5[C@@H]3C[C@@H]4S2)c(C)c1 | 1.93 | 3.93
3 | COc1cc(-c2csc(NC(=O)Nc3ccc(Cl)c(C(F)(F)F)c3)n2)cc(OC)c1OC | 0.775 | 3.85
4 | CC(=O)N1CCC(Nc2cc(C(=O)NC[C@H](O)CN3CCc4ccccc4C3)ncn2)CC1 | > 100 | > 100
5 | COc1ccc2c(c1)NC(=O)CN2c1nc(NC2CC2)nc2ccccc12 |  | 3.75
6 | CC1(C)CC[C@]2(C(N)=O)CC[C@]3(C)C(=CC[C@@H]4[C@@]5(C)C/C(=C/c6cccnc6)C(=O)C(C)(C)[C@@H]5CC[C@]43C)[C@@H]2C1 | 3.2 | > 100
7 | ClCCn1cnc2c(SCc3ccccc3Cl)ncnc21 | 9.76 | 67.6
8 | N#CC1=C(N)Oc2c(ccc3ccccc23)C1c1cccs1 (stereo not drawn) | 0.0375 | 13.7
9 | O=c1ccc2nc(C(F)(F)F)nn(-c3ccccc3)c-2c1 | 1.06 | 2.98
10 | C=CC(=O)N1C[C@H](COc2nc(Nc3cnn(C)c3)nc3[nH]cc(Cl)c23)[C@@H](OC)C1 | 0.445 | 2.59
11 | Cc1cc(N(CCNc2ccnc3cc(Cl)ccc23)Cc2cccs2)nc(Cl)n1 | 1.22 | 2.7
12 | N#Cc1c(-c2ccc(Cl)cc2)nc(SCc2ccccc2)nc1N1CCNCC1 | 1.71 | 3.46
13 | O=C(Nc1cccc(Cl)c1)Nc1nccs1 | 8.83 | 89.5
14 | CCOC(=O)c1nnn(-c2no[n+]([O-])c2-c2ccc(OC)cc2)c1COc1cccc2cccnc12 | 2.61 | 7.99
15 | CCOC(=O)/C=C1/SC(N2CCCCC2)C(=O)N1CC (stereo not drawn) | > 100 | > 100
16 | CCCCCCCC(=O)SCC/C=C/[C@@H]1CC(=O)NCc2cccc(n2)CN(Cc2ccc3ccccc3c2)CC(=O)N[C@@H](C(C)C)C(=O)O1 | 33.3 | > 100
17 | C[CH2][Pb]([CH2]C)([CH2]C)[O]C(=O)COc1ccccc1 | 0.23 | 0.659
18 | O=C1N[C@@H]2[C@@H](O)[C@@H](O)[C@H](O)C[C@H]2c2cc3c(c(O)c21)OCO3 | 0.058 | 0.298
19 | Cc1cc(Nc2ccc3c(c2)OCO3)c2cc3c(cc2n1)OCO3 | 0.519 | 15
20 | CCCC(=O)NC(c1ccc(N(CC)CC)cc1)c1cc(C)c2cccnc2c1O (stereo not drawn) | 0.386 | 1.96
21 | CN(C)CCCn1c2c(c3ccc(-c4ccn[nH]4)cc3c1=O)C(=O)c1ccccc1-2 | 7.84 | 24

Row | SMILES | GI50 [µM] | TGI [µM]
22 | CC(C)C[C@H](NC(=O)Cn1ccc(Nc2ccccc2)cc1=O)B(O)O | 0.423 | 5.88
23 | OCc1ccc(N(Cc2ccc(F)cc2)CC2CC2)cc1Cl | 0.0189 | 0.0686
24 | C=C1C(=O)O[C@H]2[C@H]1CC/C(COC(=O)CCSSCCC(=O)OC/C1=C/CC[C@@]3(C)O[C@H]3[C@H]3OC(=O)C(=C)[C@@H]3CC1)=C\CC[C@@]1(C)O[C@@H]21 | 0.543 | 2.28
25 | C=C1C(=O)O[C@H]2[C@H]1CC/C(COC(=O)/C=C\C(=O)NCc1ccc(Cn3c(=O)sn(CCCI)c3=O)cc1)=C\CC[C@@]1(C)O[C@@H]21 | 0.519 | 1.19
26 | C[n+]1c2ccccc2c(Nc2ccc(N3CCCCC3)cc2)c2[nH]c3ccccc3c21 | 0.153 | 0.401
27 | Cc1nn(CCO)c(C)c1N=[N+]([O-])c1c(C)nn(CCO)c1C | 2.84 | 15.8
28 | Cc1ccc(Cl)cc1-c1nc(N)nc(Nc2ccc(Br)cc2)n1 | 0.175 | 0.614
29 | C=C1C(=O)O[C@H]2[C@H]1CC/C(COC(=O)CCCC(=O)OC/C1=C/CC[C@@]3(C)O[C@H]3[C@H]3OC(=O)C(=C)[C@@H]3CC1)=C\CC[C@@]1(C)O[C@@H]21 | 1.51 | 5.3
30 | C[C@]12CCC(=O)CC1CC[C@@H]1C2CC[C@@]2(C)C1CC[C@@H]2OC(=O)CC[Se][Se]CCC(=O)O[C@H]1CCC2[C@@H]3CCC4CC(=O)CC[C@]4(C)C3CC[C@@]21C (stereo partly drawn) | 2.1 | 5.06
31 | CN(C)CCCNCc1ccc(-c2ccc(F)c(Cl)c2)o1 | 8.92 | 23.4
32 | Cc1cc(Oc2ccccc2)ccc1Nc1ncnc2ccc(-c3cnc(Cl)c(NS(C)(=O)=O)c3)cc12 | 1.04 | 3.33
33 | N#Cc1c(Br)n(C2OC(CO)C(O)C2O)c2ncn3ccnc3c12 (stereo not drawn) | 35.2 | > 100
34 | O=C(Nc1ccc([As]=[As]c2ccc(NC(=O)c3ccccc3)cc2)cc1)c1ccccc1 (stereo not drawn) | 0.152 | 0.324
35 | C(=C1c2ccccc2-c2ccccc21)c1ccncc1 | 2.28 | 6.64
36 | Oc1cccc(-c2nc(-c3n[nH]c(=S)n3-c3ccccc3)cc3c2[nH]c2ccccc23)c1 | 2.54 | 7.41
37 | O=C(CCCCN1CCOCC1)Nc1ccc(Cn2nnc3c2C(=O)c2nnn(Cc4ccc(NC(=O)CCCCN5CCOCC5)cc4)c2C3=O)cc1 | 0.103 | 0.261
38 | CCCN(CCC)c1ccc(CO)c(Cl)c1 | 0.0469 | 0.199
39 | O=C(Nc1ccc(-c2nc(-c3cccc(O)c3)c(-c3ccnc(Br)c3)[nH]2)cc1)c1ccccc1 | 1.91 | 4.74
40 | O=CN/N=C/c1ccc(Cl)c([N+](=O)[O-])c1 | 0.127 | 4.26
41 | O=Cc1cn(Cc2ccc(Cl)cc2)c2ccccc12 | 0.022 | 0.0801
42 | O=S(=O)(Nc1ccc(Cl)cc1)c1ccc(-c2cnc(C3CC3)o2)cc1 | 0.368 | 6.01
